{
  "source": "patent US6610883B1",
  "about": "“Compounds having selective activity for retinoid X receptors, and means for modulation of processes mediated by retinoid X receptors” (Ligand Pharmaceuticals, Inc., priority 1992, dated 2003)",
  "key": {"RXRβ/VDR": {"biological_target": "T1, RXRβ/VDR (UniProt P11473+P28704)", "T1 construct": "expressed in transfected cells; host or cells: CV-1", "T1 sequence (P28704 whole entry)": "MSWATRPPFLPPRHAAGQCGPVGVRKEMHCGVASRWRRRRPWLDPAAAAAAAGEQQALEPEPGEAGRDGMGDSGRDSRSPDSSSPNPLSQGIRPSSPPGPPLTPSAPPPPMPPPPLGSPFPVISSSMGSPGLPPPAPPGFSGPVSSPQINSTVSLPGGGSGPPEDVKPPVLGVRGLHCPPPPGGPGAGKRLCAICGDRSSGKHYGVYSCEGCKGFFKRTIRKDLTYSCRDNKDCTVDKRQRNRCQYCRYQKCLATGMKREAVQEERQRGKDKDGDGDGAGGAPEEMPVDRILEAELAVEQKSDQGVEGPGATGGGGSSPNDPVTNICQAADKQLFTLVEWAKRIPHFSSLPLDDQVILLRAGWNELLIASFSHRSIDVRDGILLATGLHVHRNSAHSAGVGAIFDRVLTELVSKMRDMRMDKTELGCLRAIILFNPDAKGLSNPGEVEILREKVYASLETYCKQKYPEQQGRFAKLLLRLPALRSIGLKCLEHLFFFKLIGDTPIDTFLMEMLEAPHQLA", "T1 sequence (P11473 whole entry)": "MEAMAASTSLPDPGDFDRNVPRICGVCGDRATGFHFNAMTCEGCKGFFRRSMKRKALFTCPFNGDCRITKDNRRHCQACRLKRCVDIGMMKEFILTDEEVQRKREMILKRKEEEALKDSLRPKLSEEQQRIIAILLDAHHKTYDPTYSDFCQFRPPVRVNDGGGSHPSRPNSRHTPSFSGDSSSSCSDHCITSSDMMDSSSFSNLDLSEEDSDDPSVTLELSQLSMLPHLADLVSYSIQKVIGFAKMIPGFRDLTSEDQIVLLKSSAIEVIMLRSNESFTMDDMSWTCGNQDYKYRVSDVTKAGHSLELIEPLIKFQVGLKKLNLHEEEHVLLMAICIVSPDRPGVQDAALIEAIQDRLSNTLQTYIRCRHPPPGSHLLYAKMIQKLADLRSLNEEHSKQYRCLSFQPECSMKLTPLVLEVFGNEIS", "experiment": "Co-transfection of RXRβ and VD receptors in CV-1 cells", "format": "cell-based"}, "RARβ [1]": {"biological_target": "T2, RARβ (Homo sapiens, UniProt P10826)", "T2 sequence (P10826 1-455)": "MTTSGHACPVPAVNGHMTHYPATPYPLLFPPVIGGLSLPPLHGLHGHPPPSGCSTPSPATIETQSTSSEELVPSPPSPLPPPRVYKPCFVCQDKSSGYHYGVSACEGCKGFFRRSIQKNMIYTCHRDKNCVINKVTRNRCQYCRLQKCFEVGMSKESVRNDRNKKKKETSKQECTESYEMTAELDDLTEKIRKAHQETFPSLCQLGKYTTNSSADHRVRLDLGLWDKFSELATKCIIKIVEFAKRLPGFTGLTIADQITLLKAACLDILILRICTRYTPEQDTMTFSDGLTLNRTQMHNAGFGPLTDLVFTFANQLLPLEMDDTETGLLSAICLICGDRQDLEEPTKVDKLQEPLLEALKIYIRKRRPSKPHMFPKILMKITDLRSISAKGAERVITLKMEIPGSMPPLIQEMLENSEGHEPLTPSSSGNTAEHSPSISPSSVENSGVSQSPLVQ", "experiment": "Co-transfection (cis-trans) assay in CV-1 cells, RARβ", "format": "cell-based", "parameters": "expressed in transfected cells; host or cells: CV-1 (monkey kidney)", "text": "(§1) The co-transfection assay provides a mechanism to evaluate the ability of a compound to modulate the transcription response initiated by an intracellular receptor. […] Berger, et al., J. Steroid Biochem Molec.\n(§2) Briefly, the co-transfection assay involves the introduction of two plasmids by transient transfection into a retinoid receptor-negative mammalian cell background. The first plasmid contains a retinoid receptor cDNA and directs constitutive expression of the encoded receptor. The second plasmid contains a cDNA that encodes for a readily quantifiable protein, e.g., firefly luciferase or chloramphenicol acetyl transferase (CAT), under control of a promoter containing a retinoid acid response element, which confers retinoid dependence on the transcription of the reporter. In this co-transfection assay, all retinoid receptors respond to all-trans-retinoic acid in a similar fashion. This assay can be used to accurately measure efficacy and potency of retinoic acid and synthetic retinoids as ligands that interact with the individual retinoid receptor subtypes.\n(§3) Accordingly, synthetic retinoid compounds of the current invention were evaluated for their interaction with retinoid receptor subtypes using the co-transfection assay in which CV-1 cells were co-transfected with one of the retinoid receptor subtypes, a reporter construct, and an internal control to allow normalization of the response for transfection efficiency. The following example is illustrative.\n(§4) Retinoids: All-tans-retinoic acid (RA) and 13-cis-retinoic acid (13-cis-RA) were obtained from Sigma. […] Retinoids were dissolved in dimethylsulfoxide for use in the transcriptional activation assays.\n(§5) Co-transfection Assay In CV-1 Cells: A monkey kidney cell line, CV-1, was used in the cis-trans assay. Cells were transfected with two plasmids. […] The cis-vector contains an easily assayable gene product, in this case the firefly luciferase, coupled to a retinoid-responsive promoter, i.e., an RARE or RXRE. Addition of retinoic acid or an appropriate synthetic retinoid results in the formation of a retinoid-RAR or -RXR complex that activates the expression of luciferase gene, causing light to be emitted from cell extracts. The level of luciferase activity is directly proportional to the effectiveness of the retinoid-receptor complex in activating gene expression. This sensitive and reproducible co-transfection approach permits the identification of retinoids that interact with the different receptor isoforms.\n(§6) Cells were cultured in DMEM supplemented with 10% charcoal resin-stripped fetal bovine serum, and experiments were conducted in 96-well plates. […] Cells were transfected for 6 h and then washed to remove the precipitate. The cells were then incubated for 36 h with or without retinoid. After the transfection, all subsequent steps were performed on a Beckman Biomek Automated Workstation. […] All determinations were performed in triplicate in two independent experiments and were normalized for transfection efficiency by using β-galactosidase as the internal control. […] Efficacy values less than 5% are not statistically different than the 0% background."}, "RARα [2]": {"biological_target": "T3, RARα (Homo sapiens, UniProt P10276)", "T3 sequence (P10276 1-462)": "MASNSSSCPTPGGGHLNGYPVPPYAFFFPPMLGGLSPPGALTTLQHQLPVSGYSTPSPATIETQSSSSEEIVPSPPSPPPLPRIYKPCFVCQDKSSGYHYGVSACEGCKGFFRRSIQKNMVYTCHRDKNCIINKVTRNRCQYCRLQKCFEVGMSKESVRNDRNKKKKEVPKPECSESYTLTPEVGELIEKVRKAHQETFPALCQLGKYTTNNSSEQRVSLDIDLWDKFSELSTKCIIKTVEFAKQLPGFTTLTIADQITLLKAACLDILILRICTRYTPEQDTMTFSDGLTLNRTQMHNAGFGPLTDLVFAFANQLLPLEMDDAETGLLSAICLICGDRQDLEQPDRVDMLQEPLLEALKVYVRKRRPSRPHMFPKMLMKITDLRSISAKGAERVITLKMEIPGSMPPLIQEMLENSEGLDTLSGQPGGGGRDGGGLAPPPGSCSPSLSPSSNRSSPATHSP", "experiment": "Radioligand displacement binding, RARα", "parameters": "made in house", "conditions": "displacement of radiolabeled retinoic acid, read-out: Binding (Kd50 nM)", "method": "(§7) The binding parameters of receptors expressed in baculovirus systems and mammalian systems are essentially identical.\n(§8) By testing the abilities of various synthetic retinoids to compete with the radiolabeled retinoic acid for binding to various receptor isoforms, the ability of the compounds to directly interact with the receptor can be examined, and the relative dissociation constant for the receptor itself can be determined.\n(§9) The Kd values were determined by application of the Cleng-Prusoff equation. These values were based on a determination of the IC50 value as determined graphically from a log-logit plot of the data."}, "RARγ [3]": {"biological_target": "T4, RARγ (Homo sapiens, UniProt P13631)", "T4 sequence (P13631 1-454)": "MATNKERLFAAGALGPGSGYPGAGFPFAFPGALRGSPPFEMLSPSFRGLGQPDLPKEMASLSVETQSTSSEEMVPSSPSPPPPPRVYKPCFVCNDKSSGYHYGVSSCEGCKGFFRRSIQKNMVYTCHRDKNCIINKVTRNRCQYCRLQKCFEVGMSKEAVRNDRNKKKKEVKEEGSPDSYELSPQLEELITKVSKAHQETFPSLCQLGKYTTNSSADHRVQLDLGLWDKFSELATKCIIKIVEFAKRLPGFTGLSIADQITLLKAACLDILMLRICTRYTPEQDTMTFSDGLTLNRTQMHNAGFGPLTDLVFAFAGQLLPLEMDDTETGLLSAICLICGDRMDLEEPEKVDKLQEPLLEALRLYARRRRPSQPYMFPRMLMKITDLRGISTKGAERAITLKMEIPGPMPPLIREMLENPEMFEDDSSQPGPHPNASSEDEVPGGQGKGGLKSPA", "experiment": "Radioligand displacement binding, RARγ", "method": "as §7, §8, §9"}, "RARα [4]": {"biological_target": "T3, RARα", "experiment": "Co-transfection (cis-trans) assay in CV-1 cells, RARα", "format": "cell-based", "parameters": "expressed in transfected cells; host or cells: CV-1 (monkey kidney)", "text": "as §1, §2, §3, §4, §5, §6"}, "RARβ [5]": {"biological_target": "T2, RARβ", "experiment": "Radioligand displacement binding, RARβ", "method": "as §7, §8, §9"}, "RARγ [6]": {"biological_target": "T4, RARγ", "experiment": "Co-transfection (cis-trans) assay in CV-1 cells, RARγ", "format": "cell-based", "parameters": "expressed in transfected cells; host or cells: CV-1 (monkey kidney)", "text": "as §1, §2, §3, §4, §5, §6"}, "[7]": {"conditions": "CV-1, maximal response relative to all-trans-retinoic acid at 10^−5 M, read-out: Efficacy"}, "[8]": {"conditions": "CV-1 cells, luciferase reporter, 36 h, read-out: Potency"}},
  "note": "pEC50, pKd: −log10 of the molar value.",
  "data": [
    {"compound": "1,25-dihydroxy-vitamin D", "values": [
      {"measurement": "Normalized Response (%)", "setting": "RXRβ/VDR", "value": 100, "unit": "%"}
    ]},
    {"compound": "C=C(c1ccc(C(=O)O)cn1)c1cc2c(cc1C)C(C)(C)CCC2(C)C", "note": "[TPNEP (58), 2-[1-(3,5,5,8,8-pentamethyl-5,6,7,8-tetrahydro-2-naphthyl)ethenyl]pyridine-5-carboxylic acid]", "values": [
      {"measurement": "Emax at 10 µM", "setting": "RARβ [1]; [7]", "value": "< 2", "unit": "%"},
      {"measurement": "pEC50", "setting": "RARβ [1]; [8]", "value": "< 5.00"},
      {"measurement": "pKd", "setting": "RARα [2]", "value": 5.11},
      {"measurement": "pKd", "setting": "RARγ [3]", "value": 5.22},
      {"measurement": "Emax at 10 µM", "setting": "RARα [4]; [7]", "value": "< 2", "unit": "%"},
      {"measurement": "pEC50", "setting": "RARα [4]; [8]", "value": "< 5.00"},
      {"measurement": "pKd", "setting": "RARβ [5]", "value": 5.31},
      {"measurement": "Emax at 10 µM", "setting": "RARγ [6]; [7]", "value": 24, "unit": "%"},
      {"measurement": "pEC50", "setting": "RARγ [6]; [8]", "value": 5.82}
    ]}
  ]
}
